Experimental data published in US6656970B2, “Method and compositions for solubilization of pentacyclic triterpenes” (Dabur Research Foundation, priority 2000, dated 2003).
Values after ≈ are worked out from the molar mass of the structure shown.

How the values were obtained:
[1] = tested on: cultured human melanoma cells; conditions: cited from earlier work
[2] = Solubility in individual solvents; assay type: physicochemical
Experimental: (§1) The solubility of betulinic acid and its derivatives was determined in various individual solvents. Based on the solubility of betulinic acid in these particular vehicles, it was then attempted to enhance the solubility of betulinic acid by mixing different solvents according to the principles of co-solvency (Spiegel and Noseworthy, 1963, Yalkowsky and Roseman, 1981). Different solvent systems were evaluated to arrive at a suitable relevant stock composition. The stock composition would then be diluted with a final solvent or intravenous solution to yield a working formulation of 0.001-40 mg/ml.
(§2) Several methods and compositions were evaluated for their ability to solubilize betulinic acid and its derivatives in water miscible, physiologically acceptable vehicles. The solvents that were tried included DMA, dimethylsulfoxide (DMSO), absolute ethanol, glycerin, polyethylene glycols (PEGs) and propylene glycol, in addition to the aqueous diluting fluids normal saline, and 2-25% dextrose in solution.

[3] = Amount of drug dissolved in solvent/co-solvent/solubilizer compositions; assay type: physicochemical
Experimental: as §1, §2
A concentrated solution of betulinic acid or its derivatives was prepared by dissolving 50-200 mg of betulinic acid or its derivatives in 1 ml of DMA. The above stock solution was diluted with PEG (polyethylene glycol, MW 300) in a ratio of 1:4 to a concentration of 10-40 mg/ml.
(§3) In the following examples one or more co-solvents with a solubilizers or a combination of (solubilizers) was added to keep the drug in solution after diluting with an aqueous intravenous diluting fluid.

[4] = tested on: human melanomas; conditions: cited from earlier work
[5] = Clarity / precipitation on dilution of the composition with aqueous diluting fluid; assay type: physicochemical
Experimental: as §1, §2, §3

[6] = Example 6: DMA 50% v/v, Tween 80 50% w/v

C=C(C)[C@@H]1CC[C@]2(C(=O)O)CC[C@]3(C)[C@H](CC[C@@H]4[C@@]5(C)CC[C@H](O)C(C)(C)[C@@H]5CC[C@]43C)[C@@H]12 [betulinic acid]
cytotoxicity [1]: melanoma-specific cytotoxic agent
solubility ([2]; Absolute ethanol, organic solvent or mixture, Absolute ethanol, varies depending upon the derivative, read-out: SOLUBILITY): 3000 to 10000 µg/mL (≈ 6.57 to 21.9 mM)
solubility ([2]; Dimethylsulfoxide (DMSO), organic solvent or mixture, Dimethylsulfoxide (DMSO), read-out: SOLUBILITY): ≤ 100000 µg/mL
solubility ([2]; Glycerin): insoluble
solubility ([2]; N,N-dimethylacetamide (DMA), organic solvent or mixture, N,N Dimethylacetamide (DMA), read-out: SOLUBILITY): ≤ 250000 µg/mL
solubility ([2]; Polyethylene glycols (MW 200, 300, 400), organic solvent or mixture, Polyethylene glycols (MW 200, 300, 400), read-out: SOLUBILITY): < 5000 µg/mL
solubility ([2]; Propylene glycol, organic solvent or mixture, Propylene glycol, read-out: SOLUBILITY): < 5000 µg/mL
solubility ([2]; Water): insoluble
solubility ([2]; most of the aqueous solvents): insoluble
drug concentration the composition could dissolve [3, 6]: ≤ 20 mg/mL
drug concentration the composition could dissolve ([3]; Example 7: Absolute ethanol 20-40% v/v, Tween 80 60-80% w/v): ≤ 20 mg/mL
drug concentration the composition could dissolve ([3]; Example 8: Absolute ethanol 65% v/v, Tween 80 5% w/v, PEG 300 30% v/v): up to 6 mg/ml
drug concentration the composition could dissolve ([3]; Example 9: Absolute ethanol 35% v/v, Tween 80 15% w/v, PEG 300 50% v/v): up to 4 mg/ml
drug concentration that could be dissolved in the compositions ([3]; Example 16: DMA 20-50% v/v, PEG 300 20-40% v/v, Tween 80 5-30% w/v): Up to 22 mg/ml
drug concentration the compositions could dissolve ([3]; Examples 12 and 13: DMA 20% v/v, MYRJ 52 20-30% w/v, Tween 20-50% w/v, with or without PEG 300 40% v/v): ≤ 20 mg/mL
drug concentration the compositions could dissolve ([3]; Examples 14 and 15: DMA 20% v/v, Tween 80 20% w/v, PEG 300 55-57% v/v, Poloxamer 407 3% w/v or Lecithin 5% w/v): 2 to 15 mg/mL
solubility ([3]; organic solvent or mixture, Examples 10 and 11: DMA 10-20% v/v, Propylene glycol 10-20% v/v, Absolute ethanol 30-35% v/v, Tween 80 35-40% w/v, read-out: concentration range soluble in the system): 2000 to 15000 µg/mL
tumor growth ([4]; athymic mice carrying human melanomas): completely inhibited
toxicity ([4]; mouse, in vivo): without toxicity
behaviour on dilution with the aqueous diluting fluid ([5]; Example 3: 50 mg drug, DMA 20% v/v, PEG 300 80% v/v, even at concentrations as low as 0.001-0.1 mg/ml): immediate precipitation
behaviour on dilution with the aqueous diluting fluid ([5]; Example 3: 200 mg drug, DMA 20% v/v, PEG 300 80% v/v): immediately precipitated out
behaviour on dilution with aqueous diluting fluid ([5]; Example 4: 50 mg drug, DMA 50% v/v, PEG 300 50% v/v, diluted with 2-25% dextrose or normal saline): gave a viscous solution which gels over time although there are no signs of any precipitation of drug
behaviour on dilution with aqueous diluting fluid [5, 6]: immediately precipitated out
time the drug solution remained clear on dilution ([5]; Example 7: Absolute ethanol 20-40% v/v, Tween 80 60-80% w/v, diluted with aqueous diluting fluid to 0.3-1.4 mg/ml): ≤ 3 h
behaviour on dilution with aqueous diluting fluid ([5]; Example 8: Absolute ethanol 65% v/v, Tween 80 5% w/v, PEG 300 30% v/v, diluted to 0.08-0.4 mg/ml): remained clear
behaviour on dilution with aqueous diluting fluid ([5]; Example 9: Absolute ethanol 35% v/v, Tween 80 15% w/v, PEG 300 50% v/v, diluted to 0.08 to 0.4 mg/ml): remained clear
behaviour on dilution with aqueous diluting fluid ([5]; Example 9 composition, diluted outside the range 0.08 to 0.4 mg/ml): immediate precipitation
time the composition remained clear without any precipitation on dilution ([5]; Example 16: DMA 20-50% v/v, PEG 300 20-40% v/v, Tween 80 5-30% w/v, diluted with aqueous diluting fluid to 0.1-10 mg/ml): more than 5 days
behaviour on dilution with an aqueous diluting fluid ([5]; Examples 10 and 11 compositions, at a lower concentration of 0.012-2 mg/ml): remains clear
behaviour on dilution with aqueous diluting fluid ([5]; Examples 12 and 13 compositions containing MYRJ 52, diluted to 0.1-1.0 mg/ml): precipitated out in a few hours
behaviour on dilution with the aqueous diluting fluid ([5]; Examples 14 and 15 compositions, only at lower dilutions (0.001-1 mg/ml)): remained soluble
